Test [1] relates to glioblastoma. Nature of the test: Multivariate Cox proportional hazards model of the treatment effect on survival (chemoradiotherapy versus radiotherapy alone) in glioblastoma patients. Particulars: MGMT-methylated patients, multivariate Cox model N = 68. The test is classed as in vivo, human. The method, then:
Gene expression profiles were established from 80 frozen GBM samples obtained from 76 patients, comprising 70 tumors from initial surgery, and 10 samples resected at recurrence, and from four non-neoplastic brain tissue samples. All patients were treated within a phase II, or a randomized phase III trial {Stupp, 2005 #2126} and provided written informed consent for molecular studies of their tumor. The protocol was approved by the ethics committee at each center. Sixty-eight patients with complete molecular and clinical information were included in survival analysis, with a median age of 51 years (range: 26-70 yrs) at enrollment. Thereof, 42 received TMZ/RT→TMZ, while 26 were randomized to RT only. Second-line therapy frequently involved alkylating agents including TMZ. The validation set comprised 76 independent patients of the EORTC/NCIC-study (Stupp et al., 2005), 39 randomized to TMZ/RT→TMZ, and 37 to RT (median age 54 yrs, range 25-69 yrs), whose GBM were available on a tissue microarray. There was no difference in survival as compared to the general trial population, neither in the test population, nor the validation set (P>0.2).
For each covariate, the hazards ratio, its 95% confidence interval and the associated Wald p-value were examined The Benjamini Hochberg procedure ^s was applied as multiple testing correction method to convert p-values into estimated false discovery rates (FDR). The hazards ratio for a gene (or the mean of a cluster) were standardized by referring them to a variation corresponding to an interquartile range, in order to obtain an interpretable value, for microarray as well as for real-time PCR data. Therefore, the interpretation of an estimated hazard ratio of 1.5 is that the hazard rate increases by 50 percent for an increase of one interquartile range of the log-scale gene expression, independently of the expression level at which it is calculated.
The log-hazard function was defined as:
g(t,X,TMZ,MGMT,age,β)=ln [h0(t)]+β1X+β2TMZ+β3MGMT+β4age+β5(X*TMZ)+β6(TMZ*MGMT) […]

Test [2] deals with glioblastoma. The conditions noted are these: glioblastoma patients; in particular with epigenetically silenced MGMT gene; cited from earlier work.
Test [3] deals with glioblastoma. Particulars: in conjunction with TMZ/RT→TMZ; patients with a methylated MGMT gene promoter; cited from earlier work.

Each structure is given as a SMILES string.

For the compound `Cn1nnc2c(C(N)=O)ncn2c1=O` [TMZ/RT→TMZ, temozolomide], the “Estimated Hazard Ratios (HR) for Treatment Effect” value in the test on glioblastoma [1] (G98 expression level 1st quartile) is recorded as 0.13; in the test with glioblastoma [1] (G98 expression level 3rd quartile), 0.47; with glioblastoma [1] (G98 expression level median), 0.25. For the same compound, in the test on glioblastoma [2], the survival entry is given as “significantly prolong survival”.

As for `CC(C)[C@H]1C(=O)N[C@@H](CCCN=C(N)N)C(=O)NCC(=O)N[C@@H](CC(=O)O)C(=O)N[C@H](Cc2ccccc2)C(=O)N1C` [cilengitide], in the test with glioblastoma [3], the anti-tumor activity entry is listed as “increased anti-tumor activity”.
